Series [1] has as its system MDA-MB-231. The series is described as follows: Antiproliferative activity against human MDA-MB-231 cells assessed as reduction in cell viability incubated for 120 hrs using ultra-low adherent 3D-spheroids by CellTiter-glo assay. The class given is functional, cell-based. To be noted: MDA-MB-231, 120 h. (ATP-based viability assays read luminescence as a measure of living cells.)

For series [2], the system named is MDA-MB-231. The series is described as follows: Antiproliferative activity against human MDA-MB-231 cells cultured as 2D-adherent monolayer assessed as reduction in cell viability by Celltiter-Glo assay. The class given is functional, cell-based.
In series [3] the test system is MDA-MB-231. Kind of series: Antiproliferative activity against human MDA-MB-231 cells cultured as 3D-spheroids assessed as reduction in cell viability by Celltiter-Glo assay. The class given is functional, cell-based.
A short description of series [4]: Apparent permeability of the compound across apical to basolateral side in human Caco-2 cells. The class given is ADME, cell-based. (In general: Passage across Caco-2 layers is used to estimate intestinal permeability.)
Series [5] in a line: Efflux ratio of apparent permeability in human Caco-2 cells. The class given is ADME, cell-based.
The target of series [6] is Cyclin-dependent kinase 1/cyclin B1 (Homo sapiens, UniProt P06493). Kind of series: Inhibition of human CDK1/cyclinB. The class given is protein-complex assay.
The target in series [7] is Glycogen synthase kinase-3 beta (Homo sapiens, UniProt P49841). Kind of series: Inhibition of human GSK3beta.
Series [8] concerns HT-29. The series is described as follows: Antiproliferative activity against human HT-29 cells cultured as 2D-adherent monolayer assessed as reduction in cell viability by Celltiter-Glo assay. The class given is functional, cell-based.
A further series has as its target CDK7/Cyclin H/MNAT1 (Homo sapiens, UniProt P50613). Kind of series: Inhibition of human CDK7/cyclinH/MAT1. The class given is protein-complex assay.
Series [9] has as its target Protein-tyrosine kinase 2-beta (Homo sapiens, UniProt Q14289). The series is described as follows: Inhibition of Pyk2 (unknown origin).
Series [10] in a line: Clearance in C57BI/6 male mouse at 2 mg/kg, iv. The class given is ADME, organism-based. As to conditions: C57BL/6, mouse, in vivo.
The species named for the next series is Homo sapiens. The series is described as follows: Antiproliferative activity against human gastric organoid assessed as reduction in cell viability by Celltiter-Glo assay. The class given is functional, tissue-based. To be noted: Stomach.
Series [11] is described as follows: AUC(infinity) in C57BI/6 male mouse at 10 mg/kg, po. Also noted: route oral, time infinity, dose 10 mg/kg. The class given is ADME, organism-based. To be noted: C57BL/6, mouse, in vivo.
Series [12] in a line: Volume of distribution at steady-state in C57BI/6 male mouse at 2 mg/kg, iv. The class given is ADME, organism-based. As to conditions: C57BL/6, mouse, in vivo, read-out: Vdss.
Series [13] concerns the target Serine/threonine-protein kinase PLK1 (Homo sapiens) (UniProt P53350). Kind of series: Inhibition of PLK1 (unknown origin) assessed as cell cycle disruption.
For series [14], the system named is MDA-MB-231. Kind of series: Inhibition of cell migration in human MDA-MB-231 cells incubated for 24 hrs by microscopy method. The class given is functional, cell-based.
A short description of series [15]: Cmax in C57BI/6 male mouse at 10 mg/kg, po. To be noted: C57BL/6, mouse, in vivo. Details: route oral, dose 10 mg/kg. The class given is ADME, organism-based.
Series [16] in a line: Tmax in C57BI/6 male mouse at 10 mg/kg, po. The class given is ADME, organism-based. To be noted: C57BL/6, mouse, in vivo.
Series [17] concerns the target Focal adhesion kinase 1 (Mus musculus) (UniProt P34152). Kind of series: Inhibition of FAK in CDH1-/- RHOAY42C/+ mouse gastric cancer organoid model assessed as […] phosphorylation at 0.1 to 20 uM incubated for 24 hrs by immunoblot analysis. The class given is tissue-based. To be noted: Stomach, dose 0.1-20 µM.
Series [18] has the same target. The series is described as follows: Inhibition of FAK in mouse gastric organoid by Immunoblotting. (A western blot detects proteins with antibodies after separation by electrophoresis.)
The test system of series [19] is HT-29. Kind of series: Antiproliferative activity against human HT-29 cells cultured as 3D-spheroids assessed as reduction in cell viability by Celltiter-Glo assay. The class given is functional, cell-based.
Series [20] can be described thus: Half life in C57BI/6 male mouse at 2 mg/kg, iv. The class given is ADME, organism-based. As to conditions: C57BL/6, mouse, in vivo.
Series [21] can be described thus: Oral bioavailability in C57BI/6 male mouse at 10 mg/kg. As to conditions: C57BL/6, mouse, in vivo. The class given is ADME, organism-based.
The next series concerns the target Focal adhesion kinase 1 (Homo sapiens, UniProt Q05397). Kind of series: Inhibition of Focal adhesion kinase (unknown origin) using Tyr 07 peptide substrate incubated for 60 mins at room temperature followed by 60 mins development reaction measured fluorescence by Z-LYTE assay.
Series [22] deals with Focal adhesion kinase 1 (Mus musculus) (UniProt P34152). Kind of series: Inhibition of FAK in CDH1-/- RHOAY42C/+ mouse gastric cancer organoid model assessed as nonphosphorylated YAP at 0.1 to 20 uM incubated for 24 hrs by immunoblot analysis. To be noted: Stomach, dose 0.1-20 µM. The class given is tissue-based.
For series [23] the target is unchanged. Kind of series: Inhibition of FAK in CDH1-/- RHOAY42C/+ mouse gastric cancer organoid model assessed as total YAP/TAZ level at 5 uM incubated for 24 hrs by immunoblot analysis. The class given is tissue-based. To be noted: Stomach.
Series [24] shares this target. The series is described as follows: Inhibition of FAK in CDH1-/- RHOAY42C/+ mouse gastric cancer organoid model assessed as […] phosphorylation at 5 uM incubated for 24 hrs by immunoblot analysis. The class given is tissue-based. To be noted: Stomach.
For another series, the species on record is Mus musculus. Kind of series: Antiproliferative activity against CDH1-/-RHOAY42C/+ mouse diffuse gastric cancer organoid model assessed as reduction in cell viability at 5 uM. To be noted: Stomach. The class given is functional, tissue-based.
For series [25], the target named is Focal adhesion kinase 1 (Mus musculus) (UniProt P34152). Kind of series: Inhibition of FAK in CDH1-/- RHOAY42C/+ mouse gastric cancer organoid model assessed as pFAY Y397 phosphorylation at 5 uM incubated for 24 hrs by immunoblot analysis. The class given is tissue-based. To be noted: Stomach.

Structures are written as SMILES. The source made the active and inactive calls. The calls are words filed in the database; no cut-off is given here.

Sequence of Focal adhesion kinase 1 (Mus musculus) (P34152 whole entry): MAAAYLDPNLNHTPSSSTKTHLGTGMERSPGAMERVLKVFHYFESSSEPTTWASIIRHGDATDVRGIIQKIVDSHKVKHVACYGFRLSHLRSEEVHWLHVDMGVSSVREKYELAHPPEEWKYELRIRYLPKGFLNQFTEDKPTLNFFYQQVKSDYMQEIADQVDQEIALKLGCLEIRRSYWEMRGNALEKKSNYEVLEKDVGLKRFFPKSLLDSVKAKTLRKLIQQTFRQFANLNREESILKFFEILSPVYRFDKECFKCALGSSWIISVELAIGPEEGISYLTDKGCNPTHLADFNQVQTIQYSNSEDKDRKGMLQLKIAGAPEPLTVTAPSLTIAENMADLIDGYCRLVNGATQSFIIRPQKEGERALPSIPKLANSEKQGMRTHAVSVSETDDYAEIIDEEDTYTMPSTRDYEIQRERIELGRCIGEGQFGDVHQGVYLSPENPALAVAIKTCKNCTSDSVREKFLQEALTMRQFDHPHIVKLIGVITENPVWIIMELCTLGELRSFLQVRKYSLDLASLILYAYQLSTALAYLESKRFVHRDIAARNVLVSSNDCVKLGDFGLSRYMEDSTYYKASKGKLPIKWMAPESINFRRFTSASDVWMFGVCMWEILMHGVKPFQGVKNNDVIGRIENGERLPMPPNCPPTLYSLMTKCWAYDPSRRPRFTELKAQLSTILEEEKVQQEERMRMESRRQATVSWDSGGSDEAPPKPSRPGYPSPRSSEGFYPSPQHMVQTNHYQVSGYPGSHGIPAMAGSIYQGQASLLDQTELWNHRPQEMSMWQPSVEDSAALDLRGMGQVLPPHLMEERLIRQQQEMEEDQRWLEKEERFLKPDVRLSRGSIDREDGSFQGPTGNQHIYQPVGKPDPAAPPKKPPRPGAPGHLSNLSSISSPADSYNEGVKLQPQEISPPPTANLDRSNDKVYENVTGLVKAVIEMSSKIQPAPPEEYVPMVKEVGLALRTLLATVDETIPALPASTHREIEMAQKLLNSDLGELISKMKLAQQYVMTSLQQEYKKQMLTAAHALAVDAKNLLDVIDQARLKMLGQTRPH
Sequence of Focal adhesion kinase 1 (Q05397 whole entry): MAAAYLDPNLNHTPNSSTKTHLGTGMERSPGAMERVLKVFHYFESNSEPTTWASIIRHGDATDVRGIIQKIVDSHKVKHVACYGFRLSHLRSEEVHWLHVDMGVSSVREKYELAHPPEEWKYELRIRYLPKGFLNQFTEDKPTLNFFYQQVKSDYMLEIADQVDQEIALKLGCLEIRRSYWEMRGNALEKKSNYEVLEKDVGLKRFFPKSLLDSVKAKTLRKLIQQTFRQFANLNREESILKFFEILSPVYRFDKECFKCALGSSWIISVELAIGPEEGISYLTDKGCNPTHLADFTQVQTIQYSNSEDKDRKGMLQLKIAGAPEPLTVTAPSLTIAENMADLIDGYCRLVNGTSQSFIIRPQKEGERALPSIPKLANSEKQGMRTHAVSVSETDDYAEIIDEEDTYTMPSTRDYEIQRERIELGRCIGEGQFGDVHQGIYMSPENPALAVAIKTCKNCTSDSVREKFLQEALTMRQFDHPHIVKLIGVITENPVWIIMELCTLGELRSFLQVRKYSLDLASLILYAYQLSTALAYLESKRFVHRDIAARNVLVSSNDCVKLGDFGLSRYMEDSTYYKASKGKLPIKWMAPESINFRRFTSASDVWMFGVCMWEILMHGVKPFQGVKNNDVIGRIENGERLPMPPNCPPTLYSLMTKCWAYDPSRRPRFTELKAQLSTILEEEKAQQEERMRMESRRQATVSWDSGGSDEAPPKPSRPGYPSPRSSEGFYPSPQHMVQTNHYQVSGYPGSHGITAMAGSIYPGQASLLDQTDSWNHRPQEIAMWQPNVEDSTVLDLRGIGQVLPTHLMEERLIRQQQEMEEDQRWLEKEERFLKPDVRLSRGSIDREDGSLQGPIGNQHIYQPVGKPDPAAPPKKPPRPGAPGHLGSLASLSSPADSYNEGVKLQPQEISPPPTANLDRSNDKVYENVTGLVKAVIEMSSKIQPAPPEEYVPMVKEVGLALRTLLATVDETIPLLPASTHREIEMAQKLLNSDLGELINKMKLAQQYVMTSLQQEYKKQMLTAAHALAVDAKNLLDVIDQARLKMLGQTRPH
Sequence of Protein-tyrosine kinase 2-beta (Q14289 whole entry): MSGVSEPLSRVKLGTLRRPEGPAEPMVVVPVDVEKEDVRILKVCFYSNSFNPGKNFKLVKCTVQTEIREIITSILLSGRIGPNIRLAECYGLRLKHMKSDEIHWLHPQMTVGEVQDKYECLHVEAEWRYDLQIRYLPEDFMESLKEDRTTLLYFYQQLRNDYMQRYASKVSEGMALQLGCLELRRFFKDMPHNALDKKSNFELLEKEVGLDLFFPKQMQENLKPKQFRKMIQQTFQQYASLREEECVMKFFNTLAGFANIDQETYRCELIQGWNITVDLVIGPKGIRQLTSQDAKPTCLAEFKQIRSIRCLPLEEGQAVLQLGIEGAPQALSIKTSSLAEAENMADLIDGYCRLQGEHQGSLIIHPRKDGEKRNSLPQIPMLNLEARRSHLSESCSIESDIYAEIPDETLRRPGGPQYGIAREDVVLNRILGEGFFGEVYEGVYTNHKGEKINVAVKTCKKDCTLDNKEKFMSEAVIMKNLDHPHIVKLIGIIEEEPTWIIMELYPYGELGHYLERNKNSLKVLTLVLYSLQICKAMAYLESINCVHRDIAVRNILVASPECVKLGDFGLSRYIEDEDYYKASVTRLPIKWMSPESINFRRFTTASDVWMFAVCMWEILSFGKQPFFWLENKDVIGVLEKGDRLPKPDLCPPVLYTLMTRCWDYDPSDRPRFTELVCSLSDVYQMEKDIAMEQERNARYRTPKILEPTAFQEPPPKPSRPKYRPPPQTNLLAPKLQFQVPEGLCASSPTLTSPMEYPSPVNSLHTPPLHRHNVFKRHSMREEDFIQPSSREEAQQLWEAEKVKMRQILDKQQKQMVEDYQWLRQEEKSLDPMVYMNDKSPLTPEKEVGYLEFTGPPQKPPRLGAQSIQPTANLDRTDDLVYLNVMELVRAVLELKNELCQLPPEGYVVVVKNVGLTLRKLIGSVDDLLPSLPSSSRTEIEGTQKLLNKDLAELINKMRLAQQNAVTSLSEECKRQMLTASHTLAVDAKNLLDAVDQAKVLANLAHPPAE
Sequence of Cyclin-dependent kinase 1/cyclin B1 (P06493 whole entry): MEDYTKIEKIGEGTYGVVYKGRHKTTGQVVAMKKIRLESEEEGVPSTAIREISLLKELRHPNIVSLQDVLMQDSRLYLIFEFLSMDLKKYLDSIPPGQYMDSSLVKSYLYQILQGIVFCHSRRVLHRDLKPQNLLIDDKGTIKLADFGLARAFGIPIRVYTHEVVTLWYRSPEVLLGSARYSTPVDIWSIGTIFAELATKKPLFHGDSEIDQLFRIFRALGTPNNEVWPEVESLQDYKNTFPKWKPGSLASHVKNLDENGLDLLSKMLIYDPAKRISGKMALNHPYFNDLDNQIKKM
Sequence of Cyclin-dependent kinase 1/cyclin B1 (P14635 whole entry, further chain): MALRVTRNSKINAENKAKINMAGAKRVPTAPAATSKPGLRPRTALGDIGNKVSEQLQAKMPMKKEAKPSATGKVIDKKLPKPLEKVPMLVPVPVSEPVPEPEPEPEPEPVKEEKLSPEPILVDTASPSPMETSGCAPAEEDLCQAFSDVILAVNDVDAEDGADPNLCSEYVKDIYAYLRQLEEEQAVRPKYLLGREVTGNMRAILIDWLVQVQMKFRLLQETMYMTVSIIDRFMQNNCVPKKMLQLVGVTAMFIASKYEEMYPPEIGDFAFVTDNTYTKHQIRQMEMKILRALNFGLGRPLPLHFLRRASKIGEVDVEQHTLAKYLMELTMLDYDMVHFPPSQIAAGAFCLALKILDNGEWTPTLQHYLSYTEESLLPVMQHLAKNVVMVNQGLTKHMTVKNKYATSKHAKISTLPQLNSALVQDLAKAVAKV
Sequence of Serine/threonine-protein kinase PLK1 (Homo sapiens) (P53350 whole entry): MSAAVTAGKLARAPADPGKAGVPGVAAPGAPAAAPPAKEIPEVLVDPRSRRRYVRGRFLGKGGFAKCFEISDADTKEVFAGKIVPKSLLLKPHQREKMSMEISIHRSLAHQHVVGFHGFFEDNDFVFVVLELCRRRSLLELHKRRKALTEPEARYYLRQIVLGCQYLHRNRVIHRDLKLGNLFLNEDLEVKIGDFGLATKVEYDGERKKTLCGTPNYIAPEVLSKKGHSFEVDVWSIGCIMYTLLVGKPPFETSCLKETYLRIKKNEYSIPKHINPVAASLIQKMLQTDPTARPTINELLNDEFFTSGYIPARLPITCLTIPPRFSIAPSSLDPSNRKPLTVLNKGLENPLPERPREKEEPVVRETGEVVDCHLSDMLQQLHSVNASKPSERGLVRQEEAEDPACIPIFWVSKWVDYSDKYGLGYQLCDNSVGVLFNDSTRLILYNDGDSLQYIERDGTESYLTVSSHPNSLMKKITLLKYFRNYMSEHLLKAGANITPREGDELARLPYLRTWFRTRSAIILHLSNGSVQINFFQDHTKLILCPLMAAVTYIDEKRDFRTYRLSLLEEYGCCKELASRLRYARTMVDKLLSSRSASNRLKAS
Sequence of Glycogen synthase kinase-3 beta (P49841 whole entry): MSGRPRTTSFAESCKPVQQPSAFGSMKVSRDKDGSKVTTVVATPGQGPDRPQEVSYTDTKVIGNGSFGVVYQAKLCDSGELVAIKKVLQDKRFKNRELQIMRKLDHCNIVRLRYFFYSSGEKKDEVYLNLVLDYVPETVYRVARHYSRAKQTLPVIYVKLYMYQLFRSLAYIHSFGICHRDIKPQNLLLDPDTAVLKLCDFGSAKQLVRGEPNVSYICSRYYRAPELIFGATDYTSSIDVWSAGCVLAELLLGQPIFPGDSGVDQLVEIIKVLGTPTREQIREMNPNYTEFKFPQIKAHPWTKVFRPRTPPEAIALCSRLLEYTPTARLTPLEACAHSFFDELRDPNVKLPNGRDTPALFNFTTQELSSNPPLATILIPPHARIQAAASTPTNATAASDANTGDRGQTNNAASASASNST

Broadly, the IC50 is the concentration that gives 50% inhibition. On to `COc1cc(N2CCNCC2)ccc1Nc1ncc2c(n1)N(C)c1sc(C)nc1C(=O)N2C`, for which the concentration for half-maximal inhibition (IC50) with MDA-MB-231 [1] was found to be 2.5 µM. For the same compound, the result in the series with MDA-MB-231 [2] was inactive. Moreover, in the series on MDA-MB-231 [3], the outcome was Active.
Broadly, the Papp A→B is how fast a substance crosses the layer from the apical side. By efflux ratio is commonly meant a quotient of directional permeabilities that is used to spot active efflux. Turning to `CCN1C(=O)c2nc(C)sc2N(C)c2nc(Nc3ccc(N4CCC(N5CCN(C)CC5)CC4)cc3OC)ncc21`, the IC50 in the series on MDA-MB-231 [1] worked out at 0.93 µM. The result in the series on MDA-MB-231 [2] was inactive. Further, the apparent permeability from apical to basolateral (Papp A→B) in series [4] turned out to be 8.3 ×10⁻⁶ cm/s. The result with MDA-MB-231 [3] was Active. The efflux ratio in series [5] came to 2.2.
Turning to `CS(=O)(=O)c1cccc(CNc2nc(Nc3ccc4c(c3)CCC(=O)N4)ncc2C(F)(F)F)c1`, the IC50 (in series [6]; in series [7]; against CDK7/Cyclin H/MNAT1; in [9]) was under 1 µM each time. The outcome in the series with HT-29 [8] was Active.
On to `CCN1c2nc(Nc3ccc(N4CCC(N5CCN(C)CC5)CC4)cc3OC)ncc2N(C)C(=O)c2nc(C)sc21`, for which the IC50 with MDA-MB-231 [1] was over 10 µM.
Broadly, the clearance is the volume of plasma or blood freed of the substance per unit of time. Low values mean a low capacity for elimination, high ones a high capacity for elimination. For orientation: AUC(0-inf) means the area under the concentration-time curve extrapolated to infinity. What is called Cmax is the peak of the concentration-time curve. Broadly, the Tmax is the time from dosing to the highest level. One may read the half-life as how long it takes for the measured level to halve. Lower therefore signals fast loss. Usually bioavailability stands for dose-corrected exposure relative to a reference, in per cent. In turn, `COc1cc(N2CCC(N3CCN(C)CC3)CC2)ccc1Nc1ncc2c(n1)N(C)c1sc(C)nc1C(=O)N2C` displayed a clearance in series [10] of 18.5 mL/min/kg. The Activity entry in the series filed under Homo sapiens is “Dose-dependent effect”. In series [11], this compound displayed an AUC(0-inf) of 1820 ng·h/mL. For the same compound, in [12], the Vd came to 4.07 L/kg. Moreover, the inhibition entry in series [13] is “inactive”. Also, the inhibition result (with MDA-MB-231 [14]; in series [17]; in [18]) was “Active” in each case. In series [15], this compound yielded a Cmax of 420 nM. The outcome with MDA-MB-231 [2], in the series with HT-29 [8] and in the series on HT-29 [19] was inactive. In [4], the apparent permeability from apical to basolateral (Papp A→B) turned out to be 5.8 ×10⁻⁶ cm/s. The outcome in the series with MDA-MB-231 [3] was Active. Besides, the Tmax in series [16] was found to be 4 h. This compound also gave a half-life in series [20] of 5.29 h. Moreover, in series [21], the bioavailability came to 18.3%.
With `COc1cc(N2CCN(S(C)(=O)=O)CC2)ccc1Nc1ncc2c(n1)N(C)c1sc(C)nc1C(=O)N2C`, the IC50 with MDA-MB-231 [1] was over 10 µM.
For the compound `CNC(=O)c1ccccc1Nc1cc(Nc2ccc(N3CCOCC3)cc2OC)ncc1C(F)(F)F`, the result in the series with HT-29 [8] and in the series on HT-29 [19] was Active.
`COc1cc(N2CCC(N3CCN(C)CC3)CC2)ccc1Nc1ncc2c(n1)N(C)c1oc(C)nc1C(=O)N2C`: the IC50 in the series with MDA-MB-231 [1] was over 10 µM; against Focal adhesion kinase 1 it was 0.525 µM.
Regarding `COc1cc(N2CCN(C)CC2)c(C)cc1Nc1ncc2c(n1)N(C)c1sc(C)nc1C(=O)N2C`, the IC50 in the series with MDA-MB-231 [1] amounted to 7.7 µM.
Take `CNC(=O)c1ccc(Nc2ncc3c(n2)N(C)c2sc(C)nc2C(=O)N3C)cc1`: in the series with MDA-MB-231 [1], the IC50 came out at 5.9 µM.
On to `CNC(=O)c1ccc(Nc2ncc3c(n2)N(C)c2sc(C)nc2C(=O)N3C)c(OC)c1`, for which the IC50 with MDA-MB-231 [1] was over 10 µM.
On Focal adhesion kinase 1, `COc1cc(N2CCN(C)CC2)ccc1Nc1ncc2c(n1)N(C)c1ccccc1C(=O)N2` gave a concentration for half-maximal inhibition (IC50) of over 10 µM.
Turning to `COc1cc(C(=O)N2CCC(N3CCN(C)CC3)CC2)ccc1Nc1ncc2c(n1)N(C)c1sc(C)nc1C(=O)N2C`, in the series on MDA-MB-231 [1], the 50% inhibitory concentration (IC50) is over 10 µM.
For `COc1cc(N2CCN(C)CC2)ccc1Nc1ncc2c(n1)N(C)c1sc(C)nc1C(=O)N2C`, the 50% inhibitory concentration (IC50) with MDA-MB-231 [1] came to 2.3 µM. The outcome with MDA-MB-231 [2] was inactive. In the series with MDA-MB-231 [3], the result was Active.
On Focal adhesion kinase 1, `Cc1nc2c(s1)N(C)c1nc(Nc3ccc(N4CCN(C)CC4)cc3OCCO)ncc1N(C)C2=O` registered a 50% inhibitory concentration (IC50) of 0.0465 µM.
As for `CNC(=O)c1ccc(Nc2ncc(C(F)(F)F)c(NCc3nccnc3N(C)S(C)(=O)=O)n2)cc1`, the inhibition entry in series [22], in [23], in series [24] and in [25] was “Active” in each case. The result in the series listed under Mus musculus and in the series with HT-29 [8] was Active.
On Focal adhesion kinase 1, `COc1cc(N2CCN(C)CC2)ccc1Nc1ncc2c(n1)N(C)c1cn(C)nc1C(=O)N2` registered an IC50 of 0.123 µM.
Regarding `Cc1nc2c(s1)N(C)c1nc(Nc3ccc4c(c3)CCC(=O)N4)ncc1N(C)C2=O`, the IC50 in the series with MDA-MB-231 [1] was over 10 µM.
Turning to `COc1cc2c(cc1Nc1ncc3c(n1)N(C)c1sc(C)nc1C(=O)N3C)CN(C)CC2`, the IC50 with MDA-MB-231 [1] is over 10 µM.
The compound `COc1cc(N2CCN(C)CC2)ccc1Nc1ncc2c(n1)N(C)c1ncsc1C(=O)N2` had an IC50 against Focal adhesion kinase 1 of over 10 µM.
Take `COc1cc(C2CCN(C)CC2)ccc1Nc1ncc2c(n1)N(C)c1sc(C)nc1C(=O)N2C`: the half-inhibitory concentration (IC50) in the series with MDA-MB-231 [1] worked out at 3.7 µM. Besides, the result with MDA-MB-231 [2] was inactive. The outcome in the series on MDA-MB-231 [3] was Active.
With `CCOc1cc(N2CCN(C)CC2)ccc1Nc1ncc2c(n1)N(C)c1sc(C)nc1C(=O)N2C`, the IC50 with MDA-MB-231 [1] came to 6.1 µM.
On to `COc1cc(N2CCN(CCO)CC2)ccc1Nc1ncc2c(n1)N(C)c1sc(C)nc1C(=O)N2C`, for which the half-maximal inhibitory concentration (IC50) in the series on MDA-MB-231 [1] was over 10 µM.
In the case of `COc1cc(N2CCC(N3CCN(C)CC3)CC2)ccc1Nc1ncc2c(n1)N(C)c1sc(-c3ccccc3)nc1C(=O)N2C`, the IC50 on Focal adhesion kinase 1 is over 10 µM.

Values taken from ChEMBL document CHEMBL4673383, “Discovery of a Pyrimidothiazolodiazepinone as a Potent and Selective Focal Adhesion Kinase (FAK) Inhibitor” (ACS Med Chem Lett, 2021).
